According to article PMC8462848, “Quinazolin-4(3H)-one based potential multiple tyrosine kinase inhibitors with excellent cytotoxicity” (Journal of Enzyme Inhibition and Medicinal Chemistry, 2021):

What was measured:
[1] = system: MCF7 (human breast adenocarcinoma) cells; assay: MTT cytotoxicity assay, MCF7; type: cell-based
Procedure: (§1) The cytotoxicity of the synthesised quinazolin-4(3H)-ones was evaluated by MTT assay, as previously described. Two cancer cell lines, MCF7 (human breast adenocarcinoma) and A2780 (human ovary adenocarcinoma), were used in this study, which were obtained from the ATCC (Rockville, MD, USA). […] Additionally, compounds were prepared at the same medium to obtain serial dilutions (50, 25, […] and 0.1 µM). […] The media were aspirated, and the formazan crystals were solubilised by adding 150 µL DMSO. Absorbance was read on a multi-plate reader (BioRad) at […]. […] The data were obtained from triplicates and analysed using statistical software.

[2] = system: A2780 (human ovary adenocarcinoma) cells; assay: MTT cytotoxicity assay, A2780; type: cell-based
Procedure: as §1

CDK2/CyclinA2 [3] = target: T1, CDK2/CyclinA2 (Homo sapiens, UniProt P24941); assay: CDK2 Assay Kit, Kinase-Glo MAX luminescence; type: biochemical; settings: one experimental data
T1 construct: purchased #79599
Procedure: The CDK2 Assay Kit is designed to measure CDK2/CyclinA2 activity for screening and profiling applications, using Kinase-Glo® MAX as a detection reagent. The CDK2 Assay Kit comes in a convenient 96-well format, with enough purified recombinant CDK2/CyclinA2 enzyme, CDK substrate peptide, ATP and kinase assay buffer for 100 enzyme reactions. […] […] The compounds were diluted in 10% DMSO and 5 μl of the dilution was added to a 50 μl reaction so that the final concentration of DMSO was 1% in all of the reactions. All of the enzymatic reactions were conducted at 30 °C for 40 min. The 50 μl reaction mixture contained 40 mM Tris, pH 7.4, 10 mM MgCl2, 0.1 mg/mL BSA, 1 mM DTT, 10 mM ATP, Kinase substrate and the enzyme (CDK2/CyclinA2). After the enzymatic reaction, 50 μl of Kinase-Glo® MAX Luminescence kinase assay solution was added to each reaction and the plates were incubated for 5 min at room temperature. Luminescence signal was measured using a Bio Tek Synergy 2 microplate reader.
Figure S1. Calculation of the IC20 Values of Protein Kinase Enzyme CDK2 for 2f
* All the kinase IC20 (µM) were calculated according to the above equations.
(1 picture or pasted object on this page, not shown here)

HER2 = target: T2, HER2 (Homo sapiens, UniProt P04626); assay: HER2 kinase assay kit, Kinase-Glo MAX luminescence; type: biochemical; settings: for inhibition at 0.01 µM / inhibition at 0.1 µM / inhibition at 1 µM / inhibition at 10 µM: one experimental data; for IC50: mean ± SD of triplicate
T2 construct: purchased #40721
T2 sequence (P04626 23-1255): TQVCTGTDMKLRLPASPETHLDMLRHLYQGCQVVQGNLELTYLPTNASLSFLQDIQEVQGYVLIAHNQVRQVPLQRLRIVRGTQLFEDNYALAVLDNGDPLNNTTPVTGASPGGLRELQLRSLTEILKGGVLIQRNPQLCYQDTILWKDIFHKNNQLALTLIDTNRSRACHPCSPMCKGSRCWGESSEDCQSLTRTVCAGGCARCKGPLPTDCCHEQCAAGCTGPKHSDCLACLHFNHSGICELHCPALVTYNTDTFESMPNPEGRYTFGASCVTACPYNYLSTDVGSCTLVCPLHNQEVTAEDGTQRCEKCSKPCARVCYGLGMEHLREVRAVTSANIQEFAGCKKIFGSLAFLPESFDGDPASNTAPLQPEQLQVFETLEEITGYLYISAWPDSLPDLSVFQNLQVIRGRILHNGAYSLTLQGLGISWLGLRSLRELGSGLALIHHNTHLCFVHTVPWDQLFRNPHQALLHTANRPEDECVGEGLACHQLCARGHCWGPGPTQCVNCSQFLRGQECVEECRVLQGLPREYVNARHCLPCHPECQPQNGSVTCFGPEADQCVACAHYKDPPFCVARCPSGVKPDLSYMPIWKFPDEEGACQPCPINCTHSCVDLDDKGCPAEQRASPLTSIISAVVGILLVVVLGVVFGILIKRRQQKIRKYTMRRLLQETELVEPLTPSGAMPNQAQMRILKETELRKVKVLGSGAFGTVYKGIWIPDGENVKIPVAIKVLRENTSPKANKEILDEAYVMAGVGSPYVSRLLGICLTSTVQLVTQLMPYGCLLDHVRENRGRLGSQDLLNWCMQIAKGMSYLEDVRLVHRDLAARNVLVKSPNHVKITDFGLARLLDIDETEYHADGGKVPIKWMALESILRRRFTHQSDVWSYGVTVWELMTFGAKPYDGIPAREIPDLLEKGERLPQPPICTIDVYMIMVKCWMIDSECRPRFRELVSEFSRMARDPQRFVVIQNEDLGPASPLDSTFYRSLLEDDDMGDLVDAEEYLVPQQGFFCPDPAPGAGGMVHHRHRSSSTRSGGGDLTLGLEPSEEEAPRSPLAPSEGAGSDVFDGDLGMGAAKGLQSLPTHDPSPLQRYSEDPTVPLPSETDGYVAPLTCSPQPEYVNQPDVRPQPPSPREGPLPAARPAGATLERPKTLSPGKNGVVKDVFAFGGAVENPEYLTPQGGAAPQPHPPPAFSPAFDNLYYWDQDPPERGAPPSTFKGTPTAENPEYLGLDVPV
Procedure: (§2) The HER2/EGFR/VEGFR2 assay kit is designed to measure HER2/EGFR/VEGFR-2 inhibitory activity for screening and profiling applications, using Kinase-Glo® MAX as a detection reagent. The HER2/EGFR/VEGFR2 assay kit comes in a convenient 96-well format, with enough purified recombinant HER2/EGFR/VEGFR2 enzyme, HER2/EGFR/VEGFR2 substrate, ATP and kinase buffer 1 for 100 enzyme reactions. […] […] The quinazolin-4(3H)-ones were diluted in 10% DMSO and 5 μl of the dilution was added to a 50 μl reaction so that the final concentration of DMSO was 1% in all of the reactions. All of the enzymatic reactions were conducted at 30 °C for 40 min. The 50 μl reaction mixture contained 40 mM Tris, pH 7.4, 10 mM MgCl2, 0.1 mg/mL BSA, 1 mM DTT, 10 mM ATP, kinase substrate and the enzyme HER2 / EGFR / VEGFR2. After the enzymatic reaction, 50 μl of Kinase-Glo® MAX luminescence kinase assay solution was added to each reaction and the plates were incubated for 5 min at room temperature. Luminescence signal was measured using a Bio Tek Synergy 2 microplate reader (For detail enzyme assay protocol and the results, please see supplementary data).

EGFR = target: T3, EGFR (Homo sapiens, UniProt P00533); assay: EGFR kinase assay kit, Kinase-Glo MAX luminescence; type: biochemical; settings: for inhibition at 0.01 µM / inhibition at 0.1 µM / inhibition at 1 µM / inhibition at 10 µM: one experimental data; for IC50: mean ± SD of triplicate
T3 construct: purchased #40321
T3 sequence (P00533 25-1210): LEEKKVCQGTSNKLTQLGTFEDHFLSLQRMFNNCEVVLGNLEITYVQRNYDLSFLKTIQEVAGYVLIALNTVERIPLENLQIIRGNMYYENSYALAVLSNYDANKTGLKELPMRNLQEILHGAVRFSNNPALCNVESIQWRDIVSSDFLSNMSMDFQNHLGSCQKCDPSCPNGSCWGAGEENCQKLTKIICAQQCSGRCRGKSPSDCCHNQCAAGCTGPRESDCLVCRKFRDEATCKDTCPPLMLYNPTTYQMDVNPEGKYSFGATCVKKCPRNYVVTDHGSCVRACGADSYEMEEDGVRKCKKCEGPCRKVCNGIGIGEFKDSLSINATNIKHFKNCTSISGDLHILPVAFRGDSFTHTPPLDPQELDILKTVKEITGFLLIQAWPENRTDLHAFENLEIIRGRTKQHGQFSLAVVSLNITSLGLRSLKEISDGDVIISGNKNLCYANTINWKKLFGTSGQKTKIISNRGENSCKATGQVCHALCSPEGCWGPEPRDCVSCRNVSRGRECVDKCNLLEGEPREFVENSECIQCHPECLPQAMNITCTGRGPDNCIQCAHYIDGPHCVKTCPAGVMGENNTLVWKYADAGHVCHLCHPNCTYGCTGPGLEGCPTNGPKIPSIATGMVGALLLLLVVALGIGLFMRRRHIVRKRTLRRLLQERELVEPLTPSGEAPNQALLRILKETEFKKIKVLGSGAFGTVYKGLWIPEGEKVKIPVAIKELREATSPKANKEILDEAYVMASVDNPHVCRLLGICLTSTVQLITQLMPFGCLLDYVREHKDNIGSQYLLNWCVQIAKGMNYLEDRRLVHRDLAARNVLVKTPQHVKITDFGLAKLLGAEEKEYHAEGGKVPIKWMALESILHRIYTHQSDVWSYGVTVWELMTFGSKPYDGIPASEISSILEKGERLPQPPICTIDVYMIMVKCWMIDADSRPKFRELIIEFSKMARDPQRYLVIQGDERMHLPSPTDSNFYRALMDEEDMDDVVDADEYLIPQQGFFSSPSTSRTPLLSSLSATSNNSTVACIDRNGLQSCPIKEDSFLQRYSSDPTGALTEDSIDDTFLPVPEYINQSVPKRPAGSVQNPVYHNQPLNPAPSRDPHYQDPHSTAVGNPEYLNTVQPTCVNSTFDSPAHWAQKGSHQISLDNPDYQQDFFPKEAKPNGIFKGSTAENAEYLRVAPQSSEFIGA
Procedure: as §2

VEGFR2 = target: T4, VEGFR2 (Homo sapiens, UniProt P35968); assay: VEGFR2 kinase assay kit, Kinase-Glo MAX luminescence; type: biochemical; settings: for inhibition at 0.01 µM / inhibition at 0.1 µM / inhibition at 1 µM / inhibition at 10 µM: one experimental data, read-out: % Inhibition VEGFR-2; for IC50: mean ± SD of triplicate
T4 construct: purchased #40325
T4 sequence (P35968 20-1356): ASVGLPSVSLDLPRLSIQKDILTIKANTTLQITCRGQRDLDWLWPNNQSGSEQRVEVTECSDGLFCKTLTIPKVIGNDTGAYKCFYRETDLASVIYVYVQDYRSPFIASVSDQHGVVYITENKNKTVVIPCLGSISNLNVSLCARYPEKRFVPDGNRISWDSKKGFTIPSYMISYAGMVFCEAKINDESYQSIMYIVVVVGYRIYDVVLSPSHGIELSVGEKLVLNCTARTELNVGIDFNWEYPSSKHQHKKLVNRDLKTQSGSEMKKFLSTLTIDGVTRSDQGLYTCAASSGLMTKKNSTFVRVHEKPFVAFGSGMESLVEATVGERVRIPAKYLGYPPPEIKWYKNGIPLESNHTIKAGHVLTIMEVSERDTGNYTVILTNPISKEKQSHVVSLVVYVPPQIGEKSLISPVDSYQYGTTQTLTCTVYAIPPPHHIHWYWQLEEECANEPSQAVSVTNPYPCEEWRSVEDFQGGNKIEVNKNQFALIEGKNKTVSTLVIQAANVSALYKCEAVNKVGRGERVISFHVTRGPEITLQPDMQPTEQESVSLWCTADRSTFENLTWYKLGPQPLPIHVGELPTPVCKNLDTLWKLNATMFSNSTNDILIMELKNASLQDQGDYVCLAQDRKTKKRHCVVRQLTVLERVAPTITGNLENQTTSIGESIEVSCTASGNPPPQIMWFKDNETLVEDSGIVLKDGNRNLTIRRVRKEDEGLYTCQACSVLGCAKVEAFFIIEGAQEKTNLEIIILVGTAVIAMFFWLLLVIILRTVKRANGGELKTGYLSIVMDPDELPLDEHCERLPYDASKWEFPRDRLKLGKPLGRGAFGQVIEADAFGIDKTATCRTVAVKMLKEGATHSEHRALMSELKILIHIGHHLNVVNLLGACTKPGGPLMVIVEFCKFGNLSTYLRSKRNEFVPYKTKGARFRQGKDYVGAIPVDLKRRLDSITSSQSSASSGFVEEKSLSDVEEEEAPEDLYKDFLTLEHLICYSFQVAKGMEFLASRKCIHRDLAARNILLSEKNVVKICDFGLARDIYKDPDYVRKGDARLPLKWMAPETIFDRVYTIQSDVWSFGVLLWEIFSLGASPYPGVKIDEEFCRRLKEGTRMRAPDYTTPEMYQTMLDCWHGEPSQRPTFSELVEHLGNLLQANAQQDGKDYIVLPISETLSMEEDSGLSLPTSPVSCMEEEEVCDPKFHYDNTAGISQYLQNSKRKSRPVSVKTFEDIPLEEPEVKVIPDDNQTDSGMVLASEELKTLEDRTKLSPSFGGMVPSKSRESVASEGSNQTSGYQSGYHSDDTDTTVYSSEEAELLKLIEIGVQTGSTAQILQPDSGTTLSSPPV
Procedure: as §2

CDK2/CyclinA2 [4] = target: T1, CDK2/CyclinA2; assay: CDK2 Assay Kit, Kinase-Glo MAX luminescence; type: biochemical; settings: mean ± SD of triplicate
[5] = Homo sapiens, MCF7, mean ± SD of triplicate
[6] = Homo sapiens, A2780, mean ± SD of triplicate

Row | Compound | melting point | inhibition at 0.01 µM (CDK2/CyclinA2 [3]) | inhibition at 0.1 µM (CDK2/CyclinA2 [3]) | inhibition at 1 µM (CDK2/CyclinA2 [3]) | inhibition at 10 µM (CDK2/CyclinA2 [3]) | inhibition at 0.01 µM (HER2) | inhibition at 0.1 µM (HER2) | inhibition at 1 µM (HER2) | inhibition at 10 µM (HER2) | IC50 (HER2) | inhibition at 0.01 µM (EGFR) | inhibition at 0.1 µM (EGFR) | inhibition at 1 µM (EGFR) | inhibition at 10 µM (EGFR) | IC50 (EGFR) | inhibition at 0.01 µM (VEGFR2) | inhibition at 0.1 µM (VEGFR2) | inhibition at 1 µM (VEGFR2) | IC50 [1, 5] | IC50 [2, 6] | also measured
1 | 2-((5-Chloro-6-methyl-4-oxo-3-phenyl-3,4-dihydroquinazolin-2-yl)thio)acetohydrazide [3e] |  |  |  |  |  |  |  |  |  |  |  |  |  |  |  |  |  |  |  |  | IC50 ([1]; mean ± SD of triplicate): 740 ± 230 nM; IC50 ([2]; mean ± SD of triplicate): 920 ± 110 nM
2 | CCOC(=O)CSc1nc2ccc(Cl)cc2c(=O)n1-c1ccccc1 [2a, Ethyl 2-((6-chloro-4-oxo-3-phenyl-3,4-dihydroquinazolin-2-yl)thio)acetate] | 85 to 87 °C |  |  |  |  |  |  |  |  |  |  |  |  |  |  |  |  |  | 1500 ± 10 nM | 2050 ± 640 nM | 
3 | CCOC(=O)CSc1nc2ccc(F)cc2c(=O)n1-c1ccccc1 [2b, Ethyl 2-((6-fluoro-4-oxo-3-phenyl-3,4-dihydroquinazolin-2-yl)thio)acetate] | 124 to 127 °C |  |  |  |  |  |  |  |  |  |  |  |  |  |  |  |  |  | 15720 ± 70 nM | 2980 ± 300 nM | 
4 | CCOC(=O)CSc1nc2c(F)cc(F)cc2c(=O)n1-c1ccccc1 [2c, Ethyl 2-((6,8-difluoro-4-oxo-3-phenyl-3,4-dihydroquinazolin-2-yl)thio)acetate] | 151 to 153 °C |  |  |  |  |  |  |  |  |  |  |  |  |  |  |  |  |  | 730 ± 180 nM | 490 ± 50 nM | 
5 | CCOC(=O)CSc1nc2cc(OC)c(OC)cc2c(=O)n1-c1ccccc1 [2d, Ethyl 2-((6,7-dimethoxy-4-oxo-3-phenyl-3,4-dihydroquinazolin-2-yl)thio)acetate] | 145 to 146 °C |  |  |  |  |  |  |  |  |  |  |  |  |  |  |  |  |  | 1560 ± 20 nM | 1230 ± 100 nM | 
6 | CCOC(=O)CSc1nc2ccc(Cl)cc2c(=O)n1Cc1ccccc1 [2f, Ethyl 2-((3-benzyl-6-chloro-4-oxo-3,4-dihydroquinazolin-2-yl)thio)acetate] | 73 to 75 °C | 4.32% | 31.2% | 32.9% | 84% | 2.33% | 38.9% | 74.8% | 89.8% | 264 ± 13 nM | 2.18% | 19.1% | 29.2% | 83.2% | 584 ± 11 nM | 3.49% | 20.2% | 40.1% | 1560 ± 240 nM | 1320 ± 430 nM | inhibition at 10 µM (VEGFR2): 38.3%; IC50 (VEGFR2): 1920 ± 21 nM; IC50 (CDK2/CyclinA2 [4]): 424 ± 12 nM
7 | CCOC(=O)CSc1nc2ccc(F)cc2c(=O)n1Cc1ccccc1 [2g, Ethyl 2-((3-benzyl-6-fluoro-4-oxo-3,4-dihydroquinazolin-2-yl)thio)acetate] | 110 to 111 °C | 8.38% | 20.7% | 78.2% | 91.4% | 17.3% | 44.2% | 83.5% | 94.4% | 884 ± 16 nM | 22.9% | 48.9% | 80.1% | 91.2% | 232 ± 30 nM | 2.43% | 18.8% | 44.1% | 1220 ± 170 nM | 2400 ± 200 nM | inhibition at 10 µM (VEGFR2): 29.2%; IC50 (VEGFR2): 702 ± 13 nM; IC50 (CDK2/CyclinA2 [4]): 444 ± 11 nM
8 | CCOC(=O)CSc1nc2c(F)cc(F)cc2c(=O)n1Cc1ccccc1 [2h, Ethyl 2-((3-benzyl-6,8-difluoro-4-oxo-3,4-dihydroquinazolin-2-yl)thio)acetate] | 120 to 123 °C | 2.43% | 12.5% | 24.4% | 80.2% | 9.07% | 38.9% | 32.3% | 82.3% | 138 ± 12 nM | 3.71% | 27.5% | 21% | 77.3% | 102 ± 14 nM | 13.3% | 38.9% | 70.8% | 840 ± 160 nM | 1400 ± 340 nM | inhibition at 10 µM (VEGFR2): 88%; IC50 (VEGFR2): 2190 ± 24 nM; IC50 (CDK2/CyclinA2 [4]): 318 ± 23 nM
9 | CS(=O)(=O)CCNCc1ccc(-c2ccc3ncnc(Nc4ccc(OCc5cccc(F)c5)c(Cl)c4)c3c2)o1 [lapatinib, reference compound] |  |  |  |  |  | 23.3% | 23.2% | 84.3% | 92.2% |  |  |  |  |  |  |  |  |  | 5900 ± 740 nM | 11100 ± 1030 nM | IC50 ([2]; mean ± SD of triplicate): 12100 ± 1030 nM
10 | Ethyl 2-((5-chloro-6-methyl-4-oxo-3-phenyl-3,4-dihydroquinazolin-2-yl)thio)acetate [2e] |  |  |  |  |  |  |  |  |  |  |  |  |  |  |  |  |  |  |  |  | IC50 ([1]; mean ± SD of triplicate): 14900 ± 990 nM; IC50 ([2]; mean ± SD of triplicate): 16400 ± 1800 nM

The next lines start with results.

Row | melting point | inhibition at 0.01 µM (CDK2/CyclinA2 [3]) | inhibition at 0.1 µM (CDK2/CyclinA2 [3]) | inhibition at 1 µM (CDK2/CyclinA2 [3]) | inhibition at 10 µM (CDK2/CyclinA2 [3]) | inhibition at 0.01 µM (HER2) | inhibition at 0.1 µM (HER2) | inhibition at 1 µM (HER2) | inhibition at 10 µM (HER2) | IC50 (HER2) | inhibition at 0.01 µM (EGFR) | inhibition at 0.1 µM (EGFR) | inhibition at 1 µM (EGFR) | inhibition at 10 µM (EGFR) | IC50 (EGFR) | inhibition at 0.01 µM (VEGFR2) | inhibition at 0.1 µM (VEGFR2) | inhibition at 1 µM (VEGFR2) | Compound | IC50 [1, 5] | IC50 [2, 6] | also measured
11 | 181 to 183 °C |  |  |  |  |  |  |  |  |  |  |  |  |  |  |  |  |  | NNC(=O)CSc1nc2ccc(Cl)cc2c(=O)n1-c1ccccc1 [3a, 2-((6-Chloro-4-oxo-3-phenyl-3,4-dihydroquinazolin-2-yl)thio)acetohydrazide] | 200 ± 20 nM | 3000 ± 1200 nM | 
12 | 192 to 194 °C |  |  |  |  |  |  |  |  |  |  |  |  |  |  |  |  |  | NNC(=O)CSc1nc2ccc(F)cc2c(=O)n1-c1ccccc1 [3b, 2-((6-Fluoro-4-oxo-3-phenyl-3,4-dihydroquinazolin-2-yl)thio)acetohydrazide] | 1320 ± 120 nM | 300 ± 60 nM | 
13 | 201 to 203 °C |  |  |  |  |  |  |  |  |  |  |  |  |  |  |  |  |  | NNC(=O)CSc1nc2c(F)cc(F)cc2c(=O)n1-c1ccccc1 [3c, 2-((6,8-Difluoro-4-oxo-3-phenyl-3,4-dihydroquinazolin-2-yl)thio)acetohydrazide] | 330 ± 30 nM | 1210 ± 10 nM | 
14 | 166 to 168 °C |  |  |  |  |  |  |  |  |  |  |  |  |  |  |  |  |  | COc1cc2nc(SCC(=O)NN)n(-c3ccccc3)c(=O)c2cc1OC [3d, 2-((6,7-Dimethoxy-4-oxo-3-phenyl-3,4-dihydroquinazolin-2-yl)thio)acetohydrazide] | 500 ± 290 nM | 770 ± 660 nM | 
15 |  | 14.9% | 47.1% | 74.1% | 89% | 23.4% | 23.4% | 83.8% | 94.8% | 112 ± 16 nM | 11.7% | 40.3% | 81.3% | 94% | 221 ± 14 nM | 3.73% | 40.9% | 71.9% | NNC(=O)CSc1nc2ccc(F)cc2c(=O)n1Cc1ccccc1 [3g, 2-((3-Benzyl-6-fluoro-4-oxo-3,4-dihydroquinazolin-2-yl)thio)acetohydrazide] |  |  | inhibition at 10 µM (VEGFR2): 90.3%; IC50 (VEGFR2): 294 ± 11 nM; IC50 (CDK2/CyclinA2 [4]): 207 ± 17 nM
16 |  | 10.3% | 44.3% | 72.1% | 90.4% | 17.9% | 20.3% | 84.3% | 94.8% | 79 ± 15 nM | 3.38% | 41.2% | 77.2% | 92.4% | 181 ± 11 nM | 10.2% | 33.5% | 37.2% | COc1cc2nc(SCC(=O)NN)n(Cc3ccccc3)c(=O)c2cc1OC [3i, 2-((3-Benzyl-6,7-dimethoxy-4-oxo-3,4-dihydroquinazolin-2-yl)thio)acetohydrazide] | 560 ± 310 nM | 1360 ± 70 nM | inhibition at 10 µM (VEGFR2): 89.4%; IC50 (VEGFR2): 257 ± 23 nM; IC50 (CDK2/CyclinA2 [4]): 177 ± 32 nM
